Laboratory results from patent US10105350B2, “Cosmetic preservatives as therapeutic corneoscleral tissue cross-linking agents” (THE TRUSTEES OF COLUMBIA UNIVERSITY IN THE CITY OF NEW YORK, priority 2014, dated 2018).
Read-outs that look alike come from different tables or passages of the source.

Legend:
[1] = test system: human skin fibroblasts (HSFs); details: past cell toxicity studies; cited from earlier work
porcine scleral tissue = assay: scleral tissue cross-linking of cut porcine scleral pieces, shift in Tm by DSC
Experimental: Equatorial scleral strips approximately 6 mm×40 mm in size were obtained from multiple eyes. These strips were submerged in DPBS solution containing 1 mM EDTA to inactivate native collagenases and to prevent tissue dehydration during sample preparation. Each strip was further cut into smaller 4 mm×3 mm pieces. The scleral pieces were individually transferred to a 24 well plate and were incubated in 1 ml of cross-linking solution in 0.1M NaHCO3 buffer at either pH 8.5 or 7.4 for 30 mins at 25° C. without refreshing the solution. […] Negative controls were treated identically with vehicle. Post-treatment, all solutions were aspirated and samples were washed twice using DPBS to remove remnant cross-linking solution before being analyzed by DSC. A minimum of three independent determinations were carried out for each condition using scleral pieces originating from different porcine globes.
(§1) Thermal denaturation temperature (Tm) of all samples was measured using a Perkin-Elmer DSC 6000 Autosampler (Waltham, Mass.). Tissue samples were carefully blotted in a standardized, repetitive manner to remove excess solution/DPBS and transferred to pre-weighed 50 ul aluminum pans. The pans were immediately hermetically sealed using a DSC pan sealing press, which is used to prevent tissue dehydration due to evaporative losses. DSC scans were run using Pyris software (version 11.0) from 40° C. to 75° C. at a rate of 1° C./min and denaturation curves representing differential heat flow over time were recorded. DSC heat flow endotherm data was analyzed using the Pyris data analysis peak search function using a calculation limit of ±0.3° C. from the apparent thermal denaturation peak.
Conversely, scleral samples were subjected to non-paired t-tests assuming equal variance of data. […] All ΔTm values are reported in the form of mean value followed by standard error.

[2] = test system: intact cadaveric rabbit cornea; assay: ex vivo rabbit corneal cross-linking simulation setup, shift in thermal denaturation temperature (Tm) by DSC; details: for ΔTm (shift in denaturation temperature of corneal tissue): Second Experimental Details, 30 mins, mean ± standard error; for cross-linking efficacy compared with nitroalcohol NP (250 mM, 60 minutes): FIG. 2, half of maximum allowed concentration (DAU 9 mM, SHMG 18.5 mM, DMDM 16 mM), 30 minutes
Experimental: 0.5% proparacaine was applied prior to the cross-linking solution. A cross-linking solution containing the formaldehyde releasing agent was then administered via a corneal reservoir for 30 minutes in 0.1M NaHCO3 at either pH 7.4 or 8.5. The epithelium was left intact. The control contralateral eye was treated identically with vehicle.
Effectiveness of cross-linking was based on shifts in thermal denaturation temperature (Tm) as measured by differential scanning calorimetry (DSC) (Perkin-Elmer DSC 6000).
Intact cadaveric rabbit heads with clear corneas were obtained fresh (within an hour of sacrifice) in adherence with the ARVO Statement For the Use of Animals in Ophthalmic and Vision Research. FAR solutions at concentrations equivalent to half the maximum allowed value (½ max) were administered in a manner designed to simulate therapeutic cross-linking in patients. For all of the corneal experiments (with the notable exception of CXL), the corneal epithelium was left intact. An 8 mm Hessburg-Barron corneal reservoir was affixed to the corneal surface using the supplied syringe vacuum. A single drop of proparacaine (0.5%) was applied to the corneal surface prior to reservoir application. A buffer solution containing 0.1M NaHCO3 at either pH 8.5 or 7.4 was used. The pH of the sample and buffer mixture was titrated to the desired pH just prior to application to the eye using an appropriately concentrated HCl solution. Treatments were conducted over a 30-minute period at 25° C. with refreshing of the solution every five minutes. The control contralateral eye was treated identically with vehicle. Immediately after treatment, a central 6 mm corneal button was trephined from the treated region of each eye, was blotted on both sides using a paper towel to remove excess solution, and was analyzed using differential scanning calorimetry (DSC) [see below]. A minimum of two independent determinations were carried out for each condition described using a fresh cadaver head each time.
as §1
Due to the nature of the ex vivo cadaveric system used for corneal cross-linking, where each cadaver provided the treated eye and contralateral control, corneal samples were subjected to paired t-tests. […] All ΔTm values are reported in the form of mean value followed by standard error.

[3] = test system: human skin fibroblasts (HSFs); details: 24 hrs exposure, 48 hr recovery
Experimental: Healthy human skin fibroblasts (HSFs) from ATCC (Manassas, Va.) were cultured in dermal cell basal media (ATCC) using a serum-free fibroblast growth kit provided by the company (ascorbic acid, EGF/TGF-β1, glutamine, hydrocortisone, insulin and FB growth supplements). Cells were grown in 5% CO2 and 95% ambient air at 37° C. until confluent. Once confluent, the cells were detached and seeded into 24 well plates at a density of 5×10^4 cells/well and were once again allowed to reach confluence. Next, cells were treated with FAR solutions over a range of concentrations (0.001 mM-5 mM) for 24 hrs. Following cross-linking exposure, all cell media, including FAR solution, was aspirated and each well was rinsed once with DPBS. Fresh media was then reintroduced and the cells were allowed to recover for 48 hrs. Subsequent to cell recovery, cell toxicity was assessed using a modified version of the trypan blue staining protocol. To that end, all culture media was aspirated and each well was rinsed with DPBS. Next, 0.4% trypan blue solution (Gibco, Grand Island, N.Y., USA) was added to each well for 3 minutes at 25° C. The staining solution was then aspirated and cells were washed twice with DPBS. Finally, extent of trypan blue staining and morphology of cells was visualized using an inverted microscope (Fisher Scientific Cat#12-560-45).
Planar cell culture experiments using Human Skin Fibroblasts (HSFs) were conducted to determine the toxicity thresholds of the FARs. The toxicity threshold was taken to be the highest concentration in mM at which all cells were alive following a 24 hour exposure to the FAR and a 48 hour recovery period.

rat = details: cited from earlier work
[4] = from literature registry; cited from earlier work
[5] = quantitative determination of formaldehyde release by 13C-NMR; type: physicochemical; details: pH 7.4 phosphate buffer, releaser 1.5 M; for Concentration of formaldehyde (M)a: free formaldehyde after 30 min at 37° C.; for Concentration of formaldehyde (M)b: free formaldehyde after 1 hour at 37° C.
Experimental: In the study corresponding with Table 2, NMR samples were prepared in NMR tubes as follows: X mg of formaldehyde-releaser, 500 ul of phosphate buffer (pH 7.4), and 500 ul of a solution of acetonitrile in D2O as internal standard (0.2M). […]. For each spectrum, the area of the formaldehyde signal at 82.5 ppm was compared with that of the acetonitrile signal at 1.3 ppm (internal standard).
• Concentration of formaldehyde-releasing agent (FAR), including nitroalcohols is 1.5 M. ^aConcentration of free formaldehyde (FA): after the sample was incubated in a water bath at 37° C. for 30 min. ^bConcentration of free formaldehyde (FA): after the sample was incubated in a water bath at 37° C. for 1 hour.

[6] = cross-linking (gel formation) with polyallylamine (PAA) hydrogel model system; details: with PAA at 37° C. and pH 7.4 phosphate buffered solution
Text: Shown in Table 1 below are the results from a parallel study using a hydrogel functionalized amine cross-linking system (polyallylamine, or “PAA”) previously published for reactions using nitroalcohols (NAs). Li et al., “Mechanistic and catalytic studies of β-nitroalcohol crosslinking with polyamine,” J Appl Polym Sci. 2013; 128:3696-3701. The Table summarizes the results obtained in comparison studies using three of the higher order nitroalcohols previously reported (the nitrotriol HNPD, the nitrodiol MNPD, and the brominated nitrodiol known as Bronopol). The cross-linking efficacy of these nitroalcohol compounds were compared to two of the instantly disclosed formaldehyde releasing agents (diazolidinyl urea (DAU) and imidazolidinyl urea (IMU)). The time to gel formation indicates cross-linking efficacy in this system.

mouse = details: in vivo; cited from earlier work
Salmonella = details: Ames, micronucleus and other assays as per footnotes; cited from earlier work
rabbit = details: cited from earlier work
[7] = pH 8.5, half max allowed concentration, epithelium intact
[8] = pH 8.5, concentrations as low as half max allowed
[9] = pH 7.4, half max allowed concentration, epithelium intact

O=CC(O)CO (stereo not shown) [Glyceraldehyde]
toxic threshold for HSFs [1]: 1 mM

O=C(NCNC(=O)NC1C(=O)NC(=O)N1CO)NC1C(=O)NC(=O)N1CO (stereo not shown) [IMU, N,N′-methylenebis[N-[3-(hydroxymethyl)-2,5-dioxo-4-imidazolidinyl]]-urea]
ΔTm of scleral tissue (porcine scleral tissue; 25 mM, pH 7.4, 30 mins): 1.280±0.392 °C
ΔTm of scleral tissue (porcine scleral tissue; 25 mM, pH 8.5, 30 mins): 2.543±0.280 °C
ΔTm (shift in denaturation temperature of corneal tissue) [2, 7]: −0.69±0.697 °C
negative shift in Tm of corneal tissue ([2]; pH 7.4, half max allowed concentration, epithelium intact, not significant): ~0.5 °C
cell state (Alive/Dead) ([3]; 0.001 mM): Alive
cell state (Alive/Dead) ([3]; 0.01 mM): Alive
cell state (Alive/Dead) ([3]; 0.1 mM): Alive
cell state (Alive/Dead) ([3]; 1 mM): Dead
cell state (Alive/Dead) ([3]; 5 mM): Dead
LD50 Oral rat (rat; oral): LD50 Oral- rat-11,300 mg/kg
Octanol Partition Coefficient (Log P) [4]: −4.930 ± 0.959

COC(=O)C1=CO[C@@H](O)[C@@H]2C(CO)=CC[C@H]12 [genipin]
toxic threshold for HSFs [1]: on par with bronopol

O=CCCCC=O [glutaraldehyde]
toxic threshold for HSFs [1]: on par with bronopol

O=[N+]([O-])C(CO)(CO)CO [HNPD, 2-hydroxymethyl-2-nitro-1,3-propanediol, reference compound]
ΔTm of scleral tissue (porcine scleral tissue; 25 mM, pH 7.4, 30 mins): negative ΔTm
ΔTm of scleral tissue (porcine scleral tissue; 25 mM, pH 8.5, 30 mins): ~0.5 °C
Concentration of formaldehyde (M)a [5]: 0.041 M
Concentration of formaldehyde (M)b [5]: 0.078 M
Cross-linking time to gel formation [6]: 29 h
LD50 Oral mouse (mouse): 10,550 mg/kg
LD50 Oral rat (rat; in vivo, po): 1,917 mg/kg
Mutagenicity (Salmonella): Non- mutagenic∥
Octanol Partition Coefficient (Log P) [4]: −0.115 ± 0.770

N,N′-methylenebis[N-[3-(hydroxymethyl)-2,5-dioxo-4-imidazolidinyl]]-urea [IMU]
Cross-linking time to gel formation [6]: 4 h

O=[N+]([O-])C(Br)(CO)CO [BP, 2-bromo-2-nitro-1,3-propanediol, reference compound]
ΔTm of scleral tissue (porcine scleral tissue; 25 mM, pH 7.4, 30 mins): ~0.5 °C
ΔTm of scleral tissue (porcine scleral tissue; 25 mM, pH 8.5, 30 mins): ~0.5 °C
Cross-linking time to gel formation [6]: 42 h
LD50 Oral rat (rat; oral): 180 mg/kg
Mutagenicity (Salmonella): Non- mutagenic§

CC(CO)(CO)[N+](=O)[O-] [nitro-diol, 2-methyl-2-nitro-1,3-propanediol]
Concentration of formaldehyde (M)a [5]: 0.011 M
Concentration of formaldehyde (M)b [5]: 0.044 M
Cross-linking time to gel formation [6]: 66 h

CC1(C)C(=O)N(CO)C(=O)N1CO [DMDM, 1,3-dimethylol-5,5-dimethyl-hydantoin]
ΔTm of scleral tissue (porcine scleral tissue; 25 mM, pH 7.4, 30 mins): 1.693±0.033 °C
scleral cross-linking effect (significance of ΔTm) (porcine scleral tissue; pH 7.4, concentrations as low as half max allowed): statistically significant cross-linking effects
scleral cross-linking effect (significance of ΔTm) (porcine scleral tissue; [8]): statistically significant cross-linking effects
cross-linking efficacy compared with nitroalcohol NP (250 mM, 60 minutes) [2]: significantly more effective
ΔTm (shift in denaturation temperature of corneal tissue) [2, 9]: 2.13±0.273 °C
ΔTm (shift in denaturation temperature of corneal tissue) [2, 7]: 2.04±0.225 °C
Mutagenicity (Salmonella): Non- mutagenic‡
Octanol Partition Coefficient (Log P) [4]: −1.078 ± 0.654

O=C([O-])CNCO.[Na+] [SMG, sodium hydroxymethylglycinate]
ΔTm of scleral tissue (porcine scleral tissue; 25 mM, pH 7.4, 30 mins): 1.697±0.311 °C
ΔTm of scleral tissue (porcine scleral tissue; 25 mM, pH 8.5, 30 mins): 5.463±0.419 °C
ΔTm of scleral tissue (porcine scleral tissue; pH 7.4, 39.06 mM (max allowed), 30 mins): 0.007±0.222 °C
ΔTm of scleral tissue (porcine scleral tissue; pH 8.5, 39.06 mM (max allowed), 30 mins): 9.073±0.450 °C
scleral cross-linking effect (significance of ΔTm) (porcine scleral tissue; [8]): statistically significant cross-linking effects
cross-linking efficacy compared with nitroalcohol NP (250 mM, 60 minutes) [2]: significantly more effective
ΔTm (shift in denaturation temperature of corneal tissue) [2, 9]: 2.281±0.697 °C
ΔTm (shift in denaturation temperature of corneal tissue) [2, 7]: 3.573±0.578 °C
cell state (Alive/Dead) ([3]; 0.001 mM): Alive
cell state (Alive/Dead) ([3]; 0.01 mM): Alive
cell state (Alive/Dead) ([3]; 0.1 mM): Alive
cell state (Alive/Dead) ([3]; 1 mM): Dead
cell state (Alive/Dead) ([3]; 5 mM): Dead
LD50 Oral rat (rat; in vivo, po): LD50 Oral- rat-2,100 mg/kg, LD50 Dermal-
Mutagenicity (Salmonella): Non- mutagenic†
LD50 Dermal rabbit (rabbit; in vivo, topical or ocular): rabbit->2,000 mg/kg
Octanol Partition Coefficient (Log P) [4]: −1.197

CC(CO)[N+](=O)[O-] (stereo not shown) [nitro-monol, 2-nitro-1-propanol]
Concentration of formaldehyde (M)a [5]: 0.018 M
Concentration of formaldehyde (M)b [5]: 0.014 M

CCC12COCN1COC2 [OCT, 5-Ethyl-3,7-dioxa-1-azabicyclo [3.3.0] octane]
ΔTm of scleral tissue (porcine scleral tissue; 25 mM, pH 7.4, 30 mins): ~0.5 °C
ΔTm of scleral tissue (porcine scleral tissue; 25 mM, pH 8.5, 30 mins): ~0.5 °C
ΔTm (shift in denaturation temperature of corneal tissue) [2, 7]: 1.10±0.246 °C
LD50 Oral rat (rat; oral): > 3,600 mg/kg
LD50 Dermal rabbit (rabbit; dermal): 1,948 mg/kg
